Measured values taken from patent publication US6593306B1, “Methods for modulation and inhibition of telomerase” (Board of Regents, The University of Texas Systems, priority 1995, dated 2003).
Values belong to the compound of their own block, whether it stands above or below them. [7dzG] = 7-deaza-2'-deoxyguanosine (G*)

Legend:
[1] = target: T1, UA-21 telomerase (Cricetulus griseus, UniProt A0A9J7FFE8); test: Telomerase assay with CHO non-processive telomerase; format: biochemical, Chinese hamster
T1 construct: non-processive telomerase activity in the S100 extracts of HeLa-S3, UA-21 and WI38 cell lines; endogenous in cells; host or cells: UA-21 cells (CHO subline), S100 extract
T1 sequence (A0A9J7FFE8 1-1129): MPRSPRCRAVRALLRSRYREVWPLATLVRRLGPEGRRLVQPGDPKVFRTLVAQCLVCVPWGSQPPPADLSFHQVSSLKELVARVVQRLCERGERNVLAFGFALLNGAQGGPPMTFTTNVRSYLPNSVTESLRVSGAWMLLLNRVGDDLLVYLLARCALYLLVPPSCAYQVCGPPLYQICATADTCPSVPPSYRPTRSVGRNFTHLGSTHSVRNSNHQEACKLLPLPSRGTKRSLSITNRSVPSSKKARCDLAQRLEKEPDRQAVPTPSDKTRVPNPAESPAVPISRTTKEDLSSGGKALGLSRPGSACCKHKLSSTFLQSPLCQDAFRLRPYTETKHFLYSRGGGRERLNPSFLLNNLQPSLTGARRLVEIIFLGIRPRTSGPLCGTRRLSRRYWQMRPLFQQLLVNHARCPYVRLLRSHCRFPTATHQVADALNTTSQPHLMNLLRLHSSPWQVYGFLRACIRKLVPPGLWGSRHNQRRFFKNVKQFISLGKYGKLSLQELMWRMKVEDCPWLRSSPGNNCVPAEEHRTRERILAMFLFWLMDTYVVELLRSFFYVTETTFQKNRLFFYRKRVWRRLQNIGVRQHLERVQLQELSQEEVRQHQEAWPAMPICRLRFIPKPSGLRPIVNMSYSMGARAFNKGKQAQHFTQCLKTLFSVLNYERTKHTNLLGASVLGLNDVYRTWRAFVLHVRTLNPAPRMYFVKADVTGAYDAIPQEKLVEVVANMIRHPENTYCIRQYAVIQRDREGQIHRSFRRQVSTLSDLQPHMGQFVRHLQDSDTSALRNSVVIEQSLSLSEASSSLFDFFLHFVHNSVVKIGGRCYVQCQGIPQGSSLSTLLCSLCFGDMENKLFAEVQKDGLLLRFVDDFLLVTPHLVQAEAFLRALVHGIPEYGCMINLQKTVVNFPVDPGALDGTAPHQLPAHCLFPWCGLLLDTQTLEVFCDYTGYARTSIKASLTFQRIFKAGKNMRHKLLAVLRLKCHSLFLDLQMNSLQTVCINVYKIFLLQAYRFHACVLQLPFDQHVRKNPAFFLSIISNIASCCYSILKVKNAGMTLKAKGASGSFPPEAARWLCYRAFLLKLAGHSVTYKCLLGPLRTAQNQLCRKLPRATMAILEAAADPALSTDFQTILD
Procedure: Selected nucleoside triphosphates were tested in one or both of the “conventional” or “modified” telomerase assays described in Methods using the human processive and the CHO non-processive telomerases. Initially, three chain-terminators were selected: 2′,3′-dideoxythymidine triphosphate (ddTTP), 3′-fluoro-2′,3′-dideoxythymidine triphosphate (F-ddTTP), and 3′-azido-2′-, 3′-dideoxythymidine triphosphate (AZ-ddTTP) as prototype agents to investigate whether they could inhibit telomerase activity. The three compounds are dTTP analogs without a 3′-OH group for subsequent chain elongation. They may either incorporate into the telomere sequence and terminate further chain elongation or compete directly with dTTP for the substrate binding site in the telomerase reaction. In either case, telomerase activity is inhibited.
The DNA ladder bands were quantitated using a Molecular Dynamic Personal Densitometer. The concentration of AZ-ddTTP required to inhibit the telomerase activity by 50% of the control is estimated to be 500 and 750 μM against the 293 and UA-21 telomerase, respectively. In contrast, the nucleoside AZT (3′-azidothymidine), at 2 mM, has a small effect on the telomerase activity.

[2] = target: T2, human telomerase (Homo sapiens, UniProt O14746); test: Cell-free telomerase inhibition, conventional or modified assay not stated; format: biochemical
T2 construct: telomerase in S100 extracts of transformed human fetal kidney tumor 293 cells (a processive telomerase); endogenous in cells; host or cells: human cells, (S100 extract)
T2 sequence (O14746 whole entry): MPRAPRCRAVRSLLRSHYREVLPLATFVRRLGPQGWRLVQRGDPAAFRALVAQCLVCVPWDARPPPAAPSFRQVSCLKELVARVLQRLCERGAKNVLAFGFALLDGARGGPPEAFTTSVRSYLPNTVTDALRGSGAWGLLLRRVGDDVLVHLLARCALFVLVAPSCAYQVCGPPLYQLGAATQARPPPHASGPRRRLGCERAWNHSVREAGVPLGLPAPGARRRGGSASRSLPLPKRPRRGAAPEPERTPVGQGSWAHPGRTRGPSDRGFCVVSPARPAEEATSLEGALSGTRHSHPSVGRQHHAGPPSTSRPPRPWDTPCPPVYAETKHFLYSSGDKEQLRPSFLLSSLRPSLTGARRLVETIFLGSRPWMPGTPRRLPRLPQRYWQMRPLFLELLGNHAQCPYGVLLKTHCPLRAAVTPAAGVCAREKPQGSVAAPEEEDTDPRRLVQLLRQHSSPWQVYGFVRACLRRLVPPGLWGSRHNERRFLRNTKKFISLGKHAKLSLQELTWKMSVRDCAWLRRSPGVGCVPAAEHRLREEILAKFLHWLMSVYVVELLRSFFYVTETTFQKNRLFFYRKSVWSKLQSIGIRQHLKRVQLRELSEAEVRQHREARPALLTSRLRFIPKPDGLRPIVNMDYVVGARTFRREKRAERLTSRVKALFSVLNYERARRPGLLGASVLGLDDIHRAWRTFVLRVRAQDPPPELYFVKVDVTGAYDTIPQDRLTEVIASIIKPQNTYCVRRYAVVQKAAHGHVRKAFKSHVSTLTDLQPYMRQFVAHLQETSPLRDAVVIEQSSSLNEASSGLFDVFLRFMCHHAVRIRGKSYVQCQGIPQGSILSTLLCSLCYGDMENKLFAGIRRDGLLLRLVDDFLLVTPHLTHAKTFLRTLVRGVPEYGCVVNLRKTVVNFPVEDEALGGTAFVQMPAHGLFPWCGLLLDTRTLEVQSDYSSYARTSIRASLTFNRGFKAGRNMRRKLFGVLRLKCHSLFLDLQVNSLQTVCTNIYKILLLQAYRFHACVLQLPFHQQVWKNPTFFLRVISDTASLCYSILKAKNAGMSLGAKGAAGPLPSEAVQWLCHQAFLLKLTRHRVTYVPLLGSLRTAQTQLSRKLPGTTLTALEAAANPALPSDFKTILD
T2 sequence (O60832 whole entry partner): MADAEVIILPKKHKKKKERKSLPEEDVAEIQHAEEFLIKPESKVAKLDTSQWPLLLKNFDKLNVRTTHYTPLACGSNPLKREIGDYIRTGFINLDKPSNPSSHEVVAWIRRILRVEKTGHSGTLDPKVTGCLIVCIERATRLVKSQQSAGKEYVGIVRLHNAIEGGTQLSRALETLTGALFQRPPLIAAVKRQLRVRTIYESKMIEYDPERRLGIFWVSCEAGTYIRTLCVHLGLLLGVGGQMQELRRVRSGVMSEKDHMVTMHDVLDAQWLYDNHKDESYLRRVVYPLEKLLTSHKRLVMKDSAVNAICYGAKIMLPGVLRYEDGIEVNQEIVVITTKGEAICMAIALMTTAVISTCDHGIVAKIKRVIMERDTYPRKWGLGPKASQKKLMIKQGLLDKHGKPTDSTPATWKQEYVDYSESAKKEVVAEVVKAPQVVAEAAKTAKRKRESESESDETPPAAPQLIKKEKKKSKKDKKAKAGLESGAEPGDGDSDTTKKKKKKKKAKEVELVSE
T2 sequence (Q9NPE3 whole entry partner): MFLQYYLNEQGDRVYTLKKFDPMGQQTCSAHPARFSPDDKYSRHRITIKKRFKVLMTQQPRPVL
T2 sequence (Q9NX24 whole entry partner): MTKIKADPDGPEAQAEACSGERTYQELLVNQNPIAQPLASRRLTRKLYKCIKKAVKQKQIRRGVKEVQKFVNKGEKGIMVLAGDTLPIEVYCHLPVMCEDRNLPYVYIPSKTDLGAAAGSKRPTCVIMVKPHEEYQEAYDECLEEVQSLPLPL
T2 sequence (Q9NY12 whole entry partner): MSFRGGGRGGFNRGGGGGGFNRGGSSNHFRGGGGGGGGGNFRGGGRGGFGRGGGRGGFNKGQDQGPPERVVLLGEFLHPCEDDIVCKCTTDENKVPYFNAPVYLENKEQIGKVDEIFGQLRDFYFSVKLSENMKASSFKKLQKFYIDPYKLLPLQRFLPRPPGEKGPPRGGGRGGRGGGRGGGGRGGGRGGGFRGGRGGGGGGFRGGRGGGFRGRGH

[3] = target: T3, human 293 cell telomerase (Homo sapiens, UniProt O14746); test: Conventional telomerase assay (32P-dGTP as radiolabel substrate); format: biochemical; conditions: 293 cells telomerase; competing dTTP 1-2 mM; inhibitor 0 to 2 mM
T3 construct: with 20 μl of S100 enzyme extract; endogenous in cells; host or cells: 293 cells (transformed human embryonic kidney), S100 extract
T3 sequence (O14746 whole entry): as the sequence (O14746 whole entry) above
T3 sequence (O60832 whole entry partner): as the sequence (O60832 whole entry partner) above
T3 sequence (Q9NPE3 whole entry partner): as the sequence (Q9NPE3 whole entry partner) above
T3 sequence (Q9NX24 whole entry partner): as the sequence (Q9NX24 whole entry partner) above
T3 sequence (Q9NY12 whole entry partner): as the sequence (Q9NY12 whole entry partner) above

[4] = tested on: G-quartet structure of human telomeric DNA sequence; test: G-quartet formation by imino proton NMR; format: physicochemical; conditions: KCl-containing buffer; imino proton resonances 10-12 ppm
Procedure: The oligodeoxyribonucleotide having the sequence d(GGTTAGGGTTAG), corresponding to the human telomeric DNA sequence, was prepared using standard automated solid phase synthesis techniques employing a ten micromole synthesis on an Applied Biosystems Model 381A automated DNA synthesizer. Solid support and reagents were purchased from Biogenex, Glen Research, or Applied Biosystems, South San Francisco, Calif. The DNA sample was deprotected in concentrated NH4OH at 55° C. overnight, purified by reverse phase HPLC on a C18 column (Dynamax-300A) and then dialyzed extensively against deionized water. NMR samples were prepared by reconstituting lyophilized DNA in 90% H2O/10% D2O containing 1 mM EDTA/50 mM potassium phosphate and either 100 mM KCl or 100 mM NaCl. NMR experiments were carried out on a Bruker AMX 500 MHz spectrophotometer using a 1-1 echo pulse sequence with maximum excitation centered as 12.0 ppm.
After cleavage from the solid support, deprotection and purification, the oligodeoxyribonucleotide is dissolved in 90% H2O/10% D2O containing 100 mM KCl/1 mM EDTA/50 mM potassium phosphate. The imino NMR spectrum of this oligodeoxyribonucleotide is acquired at various temperatures from about 0° C.-80° C. and the presence of the diagnostic G-quartet imino is indicated by the presence of resonances at 10-12 ppm.

- inhibition of the non-processive CHO telomerase ([1]; concentration not given): completely
- effect against the processive human telomerase ([2]; concentration not given): little effect
Compound: Cc1cn([C@H]2C[C@H](F)[C@@H](COP(=O)(O)OP(=O)(O)OP(=O)(O)O)O2)c(=O)[nH]c1=O [NA002, 3′-Fluoro-3′-Deoxythymidine-5′-Triphosphate]

- IC50 [3]: ~200 µM
- IC50 ([1]; UA-21 telomerase, estimated from densitometry, read-out: concentration required to inhibit the telomerase activity by 50% of the control): ~750 µM
- IC50 ([2]; 293 telomerase, estimated from densitometry, read-out: concentration required to inhibit the telomerase activity by 50% of the control): ~500 µM
Compound: Cc1cn([C@H]2C[C@H](N=[N+]=[N-])[C@@H](CO[P@](=O)(O)O[P@](=O)(O)OP(=O)(O)O)O2)c(=O)[nH]c1=O [NA010, 3′-Azido-3′-Deoxythymidine-5′-Triphosphate]

Compound: d(GGTTAGG*GTTAG): oligodeoxyribonucleotide where G* represents the 7-deaza-2′-deoxyguanosine residue (DNA GGTTAGGGTTAG; DNA, [7dzG] at 7, backbone not given here)
- temperature up to which G-quartet structure forms [4]: ≤ 20 °C

Compound: d(GGTTAGGGTTAG): oligodeoxyribonucleotide corresponding to the human telomeric DNA sequence (DNA, backbone not given here) [reference compound]
- temperature up to which G-quartet structure forms [4]: ≥ 70 °C
